The values that follow come from patent US6706703B2, “Bis(5-aryl-2-pyridyl) derivatives” (Kowa Co., Ltd., priority 2001, dated 2004).

A short description of data set [1]: Solubility of each compound in water. The data set is classed as physicochemical. The text has this:
Further, the solubility (%) of each compound in water was also estimated.

Data set [2] relates to IgE antibody production. Briefly: Evaluation of IgE antibody production inhibiting activity (B cells + LPS + mouse IL-4, IgE in culture supernatant by ELISA). The note with it: B-cell, mouse (Balb/C) spleen B cells, LPS 1 day then mouse IL-4 6 days. The data set is classed as cell-based. The method, then: Test 1 (Evaluation of IgE Antibody Production Inhibiting Activity)
From a mouse (Balb/C, male, 8 weeks old), the spleen was enucleated. The spleen was shredded in 10% FEB/RPMI 1640, and was then disintegrated into single cells through a 70-mesh screen. Those single cells were hemolyzed with Gey's solution, and using RPMI 1640 medium/25 mM HEPES/0.3% BSA, a spleen cell suspension (1×10^7 cells/mL) was prepared. After an aliquot of the suspension was reacted with a rat anti-mouse Thy-1.2 monoclonal antibody (product of Cedarlane Laboratories Limited) at 4° C. for 1 hour, centrifugation was conducted. Precipitated cells were suspended again (1×10^7 cells/mL, RPMI/HEPES/BSA). After the suspension was next reacted with a low-cytotoxic rabbit complement (product of Cedarlane Laboratories Limited) at 37° C. for 1 hour, dead cells were removed by specific gravity centrifugation using Lympholyte M (product of Cedarlane Laboratories Limited) so that a B cell fraction was obtained as viable cells.
Using a 96-well plate, the B cells (2×10^5 cells/0.2 mL/well) were incubated together with LPS (E. coli 026:B6, product of DIFCO Laboratories, Inc.) for 1 day. Mouse IL-4 (product of Genzyme Corp.) was then added, followed by further incubation for 6 days.
The IgE antibody production inhibiting activity of each drug was calculated by adding the drug Day 1 of the incubation and assaying the quantity of IgE in the culture supernatant by ELISA after the incubation.

The mark [3] stands for this setting: solubility in 0.1M hydrochloric acid (footnote *).

Structures can show the parent of a compound that is named as a salt. Marks after values point to notes of the source that are not given here.

In turn, `COc1cc(-c2ccc(N3CCCN(c4ccc(-c5cc(OC)c(N)c(OC)c5)cn4)CC3)nc2)cc(OC)c1N` [Example 34, 1,4-Bis[5-(4-amino-3,5-dimethoxyphenyl)-2-pyridyl]hexahydro-1,4-diazepine Tetrahydrochloride] showed a Water solubility in data set [1] (in water) of 5%. Also, the IC50 in data set [2] amounted to 300 nM.

Regarding `COc1cc(-c2ccc(N3CCCN(c4ccc(-c5cc(OC)c(N(C)C)c(OC)c5)cn4)CC3)nc2)cc(OC)c1N(C)C` [Example 35, 1,4-Bis[5-(4-dimethylamino-3,5-dimethoxyphenyl)-2-pyridyl]hexahydro-1,4-diazepine], in data set [1] (setting [3]), the Water solubility is listed as 5* %. For the same compound, the concentration for half-maximal inhibition (IC50) in data set [2] came to 200 nM.

Compound `COc1cc(-c2ccc(N(C)CCN(C)c3ccc(-c4cc(OC)c(OC)c(OC)c4)cn3)nc2)cc(OC)c1OC` [Example 58, N,N′-Bis[5-(3,4,5-trimethoxyphenyl)-2-pyridyl]-N,N′-dimethylethylenediamine Dimethanesulfonate] showed a Water solubility in data set [1] (in water) of 5%. The IC50 in data set [2] was determined as 200 nM.

Turning to `COc1cc(-c2ccc(N3CCN(CCCN4CCN(c5ccc(-c6cc(OC)c(OC)c(OC)c6)cn5)CC4)CC3)nc2)cc(OC)c1OC` [Example 57, 1,3-Bis[4-[5-(3,4,5-trimethoxyphenyl)-2-pyridyl]-1-piperazinyl]propane], the Water solubility in data set [1] (setting [3]) was 5* %. The 50% inhibitory concentration (IC50) in data set [2] is 100 nM.

On to `COc1cc(-c2ccc(N3CCCN(c4ccc(-c5cc(OC)c(OC)c(OC)c5)cn4)CC3)nc2)cc(OC)c1OC` [Example 26, 1,4-Bis[5-(3,4,5-trimethoxyphenyl)-2-pyridyl]hexahydro-1,4-diazepine Dimethanesulfonate], for which, in data set [1] (in water), the Water solubility was 5%. In addition, the half-maximal inhibitory concentration (IC50) in data set [2] stood at 200 nM.
